Assay results taken from the supplement of paper PMC10307832.

Experiments:
Experiment in all cases: relative viability (nuclei count vs DMSO), 5 days (fraction); higher = more cells survive
Quizartinib + AZD7762 = compound: CC(C)(C)c1cc(NC(=O)Nc2ccc(-c3cn4c(n3)sc3cc(OCCN5CCOCC5)ccc34)cc2)no1 [Quizartinib] + NC(=O)Nc1cc(-c2cccc(F)c2)sc1C(=O)N[C@H]1CCCNC1 [AZD7762] (partner 0.2 µM)
Summary of the method: (§1)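 Lung cancer cell lines were seeded in 1536-well plates and dosed by pin tool the next day, with either a single drug or a fixed anchor-drug dose combined with five library-drug doses (not always all listed) spaced in √10 steps. Five days later, one step fixed the cells and stained their nuclei (final 0.05% Triton X-100, 1% formaldehyde, 1 ug/ml Hoechst), and nuclei were counted on 4× images. Relative viability is the nuclei count in treated wells divided by the count in vehicle wells, and each value is the median of duplicate plates.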

Quizartinib + OSI-027 = compound: CC(C)(C)c1cc(NC(=O)Nc2ccc(-c3cn4c(n3)sc3cc(OCCN5CCOCC5)ccc34)cc2)no1 [Quizartinib] + COc1cccc2cc(-c3nc([C@H]4CC[C@H](C(=O)O)CC4)n4ncnc(N)c34)[nH]c12 [OSI-027] (partner 0.5 µM)
Summary of the method: as §1

Quizartinib + Tozasertib = compound: CC(C)(C)c1cc(NC(=O)Nc2ccc(-c3cn4c(n3)sc3cc(OCCN5CCOCC5)ccc34)cc2)no1 [Quizartinib] + Cc1cc(Nc2cc(N3CCN(C)CC3)nc(Sc3ccc(NC(=O)C4CC4)cc3)n2)n[nH]1 [Tozasertib] (partner 0.1 µM)
Summary of the method: as §1

YM155 + Alpelisib = compound: COCC[n+]1c2c(n(Cc3cnccn3)c1C)C(=O)c1ccccc1C2=O [YM155] + Cc1nc(NC(=O)N2CCC[C@H]2C(N)=O)sc1-c1ccnc(C(C)(C)C(F)(F)F)c1 [Alpelisib] (partner 2 µM)
Summary of the method: as §1

Cell Line | relative viability (Quizartinib + AZD7762; first compound 0.003162 µM) | relative viability (Quizartinib + AZD7762; first compound 0.01 µM) | relative viability (Quizartinib + AZD7762; first compound 0.03162 µM) | relative viability (Quizartinib + AZD7762; first compound 0.1 µM) | relative viability (Quizartinib + OSI-027; first compound 0.001 µM) | relative viability (Quizartinib + OSI-027; first compound 0.003162 µM) | relative viability (Quizartinib + OSI-027; first compound 0.01 µM) | relative viability (Quizartinib + OSI-027; first compound 0.03162 µM) | relative viability (Quizartinib + OSI-027; first compound 0.1 µM) | relative viability (Quizartinib + Tozasertib; first compound 0.001 µM) | relative viability (Quizartinib + Tozasertib; first compound 0.003162 µM) | relative viability (Quizartinib + Tozasertib; first compound 0.01 µM) | relative viability (Quizartinib + Tozasertib; first compound 0.03162 µM) | relative viability (Quizartinib + Tozasertib; first compound 0.1 µM) | relative viability (YM155 + Alpelisib; first compound 0.002 µM) | relative viability (YM155 + Alpelisib; first compound 0.006325 µM) | relative viability (YM155 + Alpelisib; first compound 0.02 µM) | relative viability (YM155 + Alpelisib; first compound 0.06325 µM) | relative viability (Quizartinib + AZD7762; first compound 0.001 µM)
EKVX | 0.621 | 0.744 | 0.67 | 0.841 | 0.43 | 0.691 | 0.656 | 0.674 | 0.728 | 0.176 | 0.323 | 0.347 | 0.369 | 0.334 | 0.897 | 0.916 | 0.859 | 0.813 | 
EMC-BAC-2 | 1.21 | 1.16 |  | 1.19 | 0.348 | 0.397 | 0.364 |  | 0.413 | 0.262 | 0.259 | 0.281 |  | 0.282 | 0.735 | 0.723 | 0.729 | 0.719 | 0.909
EPLC-272H | 0.325 | 0.258 | 0.208 | 0.231 | 0.249 | 0.28 | 0.264 | 0.271 | 0.263 | 0.226 | 0.208 | 0.246 | 0.33 | 0.297 | 0.917 | 0.937 | 0.915 | 1.02 | 0.287
H3255 | 0.894 | 0.911 | 0.911 | 1.03 | 0.502 | 0.589 | 0.628 | 0.62 | 0.433 | 0.59 | 0.58 | 0.508 | 0.584 | 0.544 | 0.707 | 0.658 | 0.714 | 0.682 | 0.905
HARA | 0.193 | 0.515 | 0.26 | 0.334 |  | 0.523 | 0.368 | 0.423 | 0.325 |  | 0.101 | 0.102 | 0.0944 | 0.122 | 0.876 | 0.961 | 0.842 | 0.86 | 0.401
HCC-15 | 1.13 | 0.951 | 1.14 | 0.958 |  | 0.71 | 0.583 |  | 0.644 |  | 0.429 | 0.602 | 0.29 | 0.2 | 0.96 | 0.826 | 0.927 | 0.879 | 1.35
HCC-44 | 1.04 | 0.988 | 1.02 | 1.02 |  | 0.641 | 0.416 | 0.475 | 0.549 |  | 0.867 | 0.849 | 0.645 | 0.689 | 0.749 | 0.766 | 0.813 | 0.862 | 0.976
HCC-78 | 0.805 | 0.539 | 0.535 | 0.777 | 0.398 | 0.375 | 0.357 | 0.325 | 0.377 | 0.453 | 0.325 | 0.365 | 0.368 | 0.384 | 0.341 | 0.436 | 0.361 | 0.438 | 0.671
HCC-366 | 0.181 | 0.285 | 0.119 | 0.199 | 0.705 | 0.866 | 0.796 | 0.831 | 0.747 | 0.11 | 0.0914 | 0.0628 | 0.0575 | 0.0582 | 0.365 | 0.428 | 0.375 | 0.496 | 0.272
